This is an account of results in patent US11771717B2, “Applications of pair-production for improved radiotherapy” (Henry Ford Health System, priority 2017, dated 2023).

The test system of the data set is A549 human lung cancer cells. The settings on record: for more cell killing at 18 MV vs 6 MV: Example 3 conclusion; for increased cell killing at 18 MV compared to 6 MV, on average: cisplatin 4 μg/ml, carboplatin 12 μg/ml (FIG. 4); for cell survival decreased using 18 MV photons compared to 6 MV photons, average of 3 experiments: FIG. 2 and FIG. 4, 2 hours before irradiation with 2 Gy, 100 μM sodium phosphotungstate, 4 μg/ml cisplatin, 12 μg/ml carboplatin; for decreased clonogenic survival at 18 MV compared to 6 MV: Example 2 conclusion. As for the experimental part: Detailed Methods: The human lung cancer cell line A549 was maintained in tissue culture using standard techniques. A 70% confluent T25 tissue culture flask of A549 in exponential growth phase was trypsinized with 2 mL of 0.05% trypsin solution and deactivated with 3 mL DMEM to produce a 5 mL single cell-suspension. One milliliter of this cell solution was added to 10 mL of DMEM and vortexed to produce a homogenous diluted single cell suspension. Seven 6-well tissue culture plates were prepared with 3 mL of DMEM per well. […] These plates were incubated at 37° C. for 24 hours to allow the cells to settle and the tissue culture wells. The media was then removed from each plate and replaced with: DMEM in 3 plates as non-metal controls (250 cells per well), 100 μM sodium phosphotungstate hydrate DMEM in 2 plates (250 cells per well), 1 mM sodium tungstate dihydrate DMEM in 2 plates (250 cells per well), and 4 μg/mL cisplatin DMEM in 2 plates (1000 cells per well). The media with or without metal compounds was left in the wells to incubate for 1-2 hours prior to irradiation. Six plates were irradiated using a linear accelerator (Varian Trilogy; Varian Corp., Palo Alto, Calif.): one plate each of the DMEM, sodium phosphotungstate hydrate, sodium tungstate dihydrate, and cisplatin were given 209 MU of 6 MV X-rays (2 Gy) and the remaining plates of DMEM, sodium phosphotungstate hydrate, sodium tungstate dihydrate, and cisplatin were irradiated with 239 MU of 18 MV X-rays (2 Gy). The remaining seventh plate was not irradiated and used to calculate plating efficiency of A549. The seven plates then had all media replaced with normal DMEM immediately following irradiation and were incubated for 10 days. When A549 colonies were seen to be equal to or greater than 50 cells by microscopy, the seven plates were stained with crystal violet and counted. The same experiment above was conducted for A549 cells in DMEM media alone with administration of sodium phosphotungstate hydrate after irradiation. Two identical plates were prepared as described above and these were irradiated at 6 or 18 MV in DMEM. The media was removed after irradiation and replaced with 100 μM sodium phosphotungstate hydrate media for one hour before again being replaced with DMEM and incubated for 10 days.
A549 lung cancer cells were used to create nine 6-well plates under standard methods. The media was then removed from each plate and replaced with: DMEM in 3 plates as non-metal controls (250 cells per well), 100 μM sodium phosphotungstate hydrate DMEM in 2 plates (250 cells per well), 12 μg/ml carboplatin DMEM in 2 plates (1000 cells per well), and 4 μg/ml cisplatin DMEM in 2 plates (1000 cells per well) and incubated for 2-4 hours prior to irradiation. Eight plates were irradiated on a linear accelerator: one plate each of the DMEM, tungsten, carboplatin, and cisplatin was given 2 Gy of 6 MV X-rays and one of each was irradiated with 2 Gy of 18 MV X-rays. The remaining plate was not irradiated and used to calculate plating efficiency of A549. The nine plates were incubated for 10 days, stained with crystal violet, and colonies were counted.
In vitro studies were conducted with the A549 cell line, a human lung adenocarcinoma cultured from the tumor of a person by Giard in 1972. Clonogenic survival studies were done without irradiation or metal compound to measure plating efficiency. Cells were then exposed to 100 μM tungsten compound for 4 hours and seeded into 6 well plates. […] 4 identical plates of cells were then created, 2 containing 100 μM tungsten metal and 2 without metal.

Where [1] appears, read: Example 3, 2 Gy of 6 MV X-rays, incubated 2-4 hours prior to irradiation (100 μM tungsten, 4 μg/ml cisplatin, 12 μg/ml carboplatin).
[2] abbreviates: Example 3, 2 Gy of 18 MV X-rays, incubated 2-4 hours prior to irradiation (100 μM tungsten, 4 μg/ml cisplatin, 12 μg/ml carboplatin).
The mark [3] stands for this setting: Example 2, 2 Gy of 6 MV X-rays, compound in media 1-2 hours prior to irradiation (100 μM sodium phosphotungstate hydrate, 1 mM sodium tungstate dihydrate, 4 μg/mL cisplatin).
Setting [4] is: Example 2, 2 Gy of 18 MV X-rays, compound in media 1-2 hours prior to irradiation (100 μM sodium phosphotungstate hydrate, 1 mM sodium tungstate dihydrate, 4 μg/mL cisplatin).

Like-named read-outs stand apart in the source and are kept apart here.

For `N.N.O=C([O-])C1(C(=O)[O-])CCC1.[Pt+2]` [carboplatin, reference compound], the “cell survival decreased using 18 MV photons compared to 6 MV photons, average of 3 experiments” value (shortened to “cell survival decreased”) is recorded as “approximately 37%”. For the same compound, under setting [1], the colonies/well came to 64 colonies/well and the survival is 16%. Further, under setting [2], the colonies/well was found to be 40 colonies/well and the survival stood at 10%. The “more cell killing at 18 MV vs 6 MV” value (2 Gy) is reported as 37%. Besides, the “increased cell killing at 18 MV compared to 6 MV, on average” value (Example 4) is given as “approximately 37%”.

`N.N.[Cl][Pt][Cl]` [cisplatin, reference compound]: the “cell survival decreased” value is “approximately 37%”. Further, under setting [3], the average colonies is 54 colonies and the survival was 13%. Moreover, under setting [4], the average colonies amounted to 29 colonies and the survival is recorded as 7%. The “18 MV result compared to 6 MV, in words” value (Example 2, 18 MV vs 6 MV, 2 Gy) is reported as “half of that at 6 MV”. In addition, where the note is “2 Gy”, the “decreased clonogenic survival at 18 MV compared to 6 MV” value (shortened to “decreased clonogenic survival at 18 MV”) was “approximately 50%” and the “more cell killing at 18 MV vs 6 MV” value was determined as 37%. Under setting [1], the colonies/well is on record as 54 colonies/well and the survival was 13%. Under setting [2], the colonies/well amounted to 29 colonies/well and the survival is on record as 7%. Besides, the “increased cell killing at 18 MV compared to 6 MV, on average” value (Example 4) was “approximately 37%”.

Turning to `O.O.[Na+].[Na+].[O]=[W](=[O])([O-])[O-]` [sodium tungstate dihydrate], under setting [3], the average colonies turned out to be 70 colonies and the survival was 68%. For the same compound, under setting [4], the average colonies was 21 colonies and the survival is recorded as 20%. Under “Example 2, 18 MV vs 6 MV, 2 Gy, 1 mM”, the “more cell killing compared to 6 MV” value is “approximately 70%”. For the same compound, the “decreased clonogenic survival at 18 MV” value (2 Gy) was around 70%.

With sodium phosphotungstate hydrate, the “cell survival decreased” value was 48%. In addition, the “survival after drug administration without irradiation” value (100 μM for 4 hours, no irradiation) is “greater than 95%”. Also, the “cell killing, plates exposed to tungsten after irradiation” value (Example 2, 100 μM for one hour after irradiation, at either 6 or 18 MV) is “approximately 65%”. Under setting [3], the average colonies turned out to be 68 colonies and the survival is 66%. Moreover, under setting [4], the average colonies worked out at 35 colonies and the survival was 34%. The “18 MV result compared to 6 MV, in words” value (Example 2, 18 MV vs 6 MV, 2 Gy) is “double cell kill”. Where the note is “2 Gy”, the “decreased clonogenic survival at 18 MV” value is “approximately 50%” and the “more cell killing at 18 MV vs 6 MV” value is listed as “approximately 50%”. In addition, under setting [1], the colonies/well stood at 68 colonies/well and the survival is given as 66%. Under setting [2], the colonies/well is given as 35 colonies/well and the survival is 34%. Besides, the “more cell killing compared to 6 MV with or without metal and 18 MV without metal” value (Example 4, 100 μM, 2 Gy of 18 MV photons) was “approximately 50%”.
